Columns and labels:
[1] = molecular target: T1, human TGR5 (Homo sapiens, UniProt Q8TDU6); test: Cell-based TGR5 assay, HEK293 cells stably expressing human TGR5, cAMP by HTRF; conditions: HEK293 cells stably expressing human TGR5, 30 min at 37 C, 0.05 nM to 10 μM; for EC50: read-out: pEC50 Human TGR5 (converted)
T1 construct: expressed in transfected cells
T1 sequence (Q8TDU6 1-330): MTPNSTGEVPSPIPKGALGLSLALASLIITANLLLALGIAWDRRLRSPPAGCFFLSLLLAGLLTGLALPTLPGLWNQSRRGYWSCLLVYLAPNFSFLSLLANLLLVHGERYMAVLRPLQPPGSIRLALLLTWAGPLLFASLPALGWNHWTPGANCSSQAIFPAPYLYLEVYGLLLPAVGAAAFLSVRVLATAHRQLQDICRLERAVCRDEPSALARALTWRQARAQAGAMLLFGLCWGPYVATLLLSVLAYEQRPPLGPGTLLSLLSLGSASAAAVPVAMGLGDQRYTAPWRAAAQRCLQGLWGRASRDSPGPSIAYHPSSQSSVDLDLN
Protocol: (§1) Two primary cell based screens were performed. The first utilized HEK293 cells stably transfected to heterologously express human TGR5. The second screen used the human caecum carcinoma cell line NCI-H716 which endogenously expresses human TGR5. In both assays, cells are treated with candidate TGR5 activators and assessed for the increased intercellular levels of cAMP.
HEK293 cells were transfected with a vector that expresses a gene encoding human TGR5, and a stable cell line was isolated using drug selection following standard techniques. Cells were grown overnight at 37° C./5% CO2 prior to assay.
(§2) TGR5-mediated cAMP generation was measured using a homogeneous time resolved fluorescence (HTRF) detection method (Cisbio). Test compounds were dissolved in DMSO to a final concentration of 10 mM. Serial 3-fold dilutions of the stock solution were made in DMSO, and these solutions were diluted 100-fold into Hanks Balanced Salt Solution supplemented with 10 mM HEPES pH 7.4 and 0.5 mM isobutyl methylxanthine (IBMX). Prior to assay, culture medium was replaced with fresh medium, and test compounds diluted in HBSS/HEPES/IBMX were added to the cells and incubated at 37° C. for 30 minutes.
(§3) Following incubation with test compounds, cAMP was detected through the successive addition of cAMP labeled with the modified allophyocyanin dye d2 (cAMP-d2) and cryptate-labeled anti-cAMP in lysis buffer, and reading HTRF per the manufacturer's instructions. A standard curve was used to convert the raw HTRF data into [cAMP].

[2] = molecular target: T2, endogenously expressed TGR5 in NCI H716 (Homo sapiens, UniProt Q8TDU6); test: Cell-based TGR5 assay, NCI-H716 cells endogenously expressing human TGR5, cAMP by HTRF; conditions: 30 min at 37 C, 22 nM to 50 μM, read-out: pEC50 endogenously expressed TGR5 in NCI H716 (converted)
T2 construct: human caecum carcinoma cell line NCI-H716 which endogenously expresses human TGR5; endogenous in cells; host or cells: NCI-H716
T2 sequence (Q8TDU6 1-330): T1 sequence (Q8TDU6 1-330)
Protocol: as §1, with “cAMP. […]” for “cAMP.”
as §2, §3

SMILES	EC50 [1] [nM]	EC50 [2] [nM]	pEC50 Human TGR5 [1]
N#Cc1cccc(COC2(C(=O)N3CCN(C4CC4)c4ccccc43)CC2)c1 [Example 45, 3-((1-(4-cyclopropyl-1,2,3,4-tetrahydroquinoxaline-1-carbonyl)cyclopropoxy)methyl)benzonitrile]	126 to 1000	1260 to 50100	–
O=C(N1CCN(C2CC2)c2ccccc21)C1(NCc2cc(Cl)ccc2Cl)COC1 [Example 90, (4-cyclopropyl-3,4-dihydroquinoxalin-1(2H)-yl)(3-(2,5-dichlorobenzylamino)oxetan-3-yl)methanone]	< 100	126 to 1000	–
CN(C[C@H](O)[C@@H](O)[C@@H](O)[C@H](O)CO)C(=O)CCc1ccc(Cl)c(CNC2(C(=O)N3CCN(C4CC4)c4ccccc43)CC2)c1 [Example 71, 3-(4-chloro-3-(((1-(4-cyclopropyl-1,2,3,4-tetrahydroquinoxaline-1-carbonyl)cyclopropyl)amino)methyl)phenyl)-N-methyl-N-((2S,3R,4S,5R)-2,3,4,5,6-pentahydroxyhexyl)propanamide]	126 to 1000	126 to 1000	–
CN(C[C@H](O)[C@@H](O)[C@H](O)[C@H](O)CO)C(=O)CCCOc1cc(Cl)c(CN2CSC[C@H]2C(=O)N2CCN(C3CC3)c3ccccc32)cc1Cl [Example 189]	< 100	126 to 1000	–
O=C(CCc1cc(Cl)c(CNC2(C(=O)N3CCN(C4CC4)c4ccccc43)CC2)cc1Cl)NCCOCCOCCNC(=O)CCc1cc(Cl)c(CNC2(C(=O)N3CCN(C4CC4)c4ccccc43)CC2)cc1Cl [Example 95, N,N′-(2,2′-(ethane-1,2-diylbis(oxy))bis(ethane-2,1-diyl))bis(3-(2,5-dichloro-4-((1-(4-cyclopropyl-1,2,3,4-tetrahydroquinoxaline-1-carbonyl)cyclopropylamino)methyl)phenyl)propanamide)]	< 100	1260 to 50100	–
O=C(NCCCc1cc(Cl)c(CNC2(C(=O)N3CCN(C4CC4)c4ccccc43)CC2)cc1Cl)NCCOCCOCCNC(=O)NCCCc1cc(Cl)c(CNC2(C(=O)N3CCN(C4CC4)c4ccccc43)CC2)cc1Cl [Example 212]	1260 to 50100	1260 to 50100	–
Cc1cccc(CC2CCCN2C(=O)N2CCN(C3CC3)c3ccccc32)c1 (centres unmarked) [Example 58]	1260 to 50100	1260 to 50100	–
O=C([C@@H]1CCCN1Cc1cc(Cl)cc(OC(F)(F)F)c1)N1CCN(C2CC2)c2ccccc21 [Example 74, 1-[[(2S)-1-[[3-chloro-5-(trifluoromethoxy)phenyl]methyl]-pyrrolidin-2-yl]carbonyl]-4-cyclopropyl-1,2,3,4-tetrahydroquinoxaline]	126 to 1000	> 50100	–
COc1cc(Cl)c(CN2CCC[C@H]2C(=O)N2CCN(C3CC3)c3ccccc32)cc1Cl [Example 89, (S)-(4-cyclopropyl-3,4-dihydroquinoxalin-1(2H)-yl)(1-(2,5-dichloro-4-methoxybenzyl)pyrrolidin-2-yl)methanone]	126 to 1000	1260 to 50100	–
CN(C[C@H](O)[C@@H](O)[C@H](O)[C@H](O)CO)C(=O)CCc1cc(Cl)c(CNC2(C(=O)N3CCN(C4CC4)c4ccccc43)CC2)cc1Cl [Example 91, 3-(2,5-dichloro-4-((1-(4-cyclopropyl-1,2,3,4-tetrahydroquinoxaline-1-carbonyl)cyclopropylamino)methyl)phenyl)-N-methyl-N-((2S,3R,4R,5R)-2,3,4,5,6-pentahydroxyhexyl)propanamide]	126 to 1000	126 to 1000	–
CN(C[C@H](O)[C@@H](O)[C@H](O)[C@H](O)CO)C(=O)NCCCCOc1cc(Cl)c(CNC2(C(=O)N3CCN(C4CC4)c4ccccc43)CC2)cc1Cl [Example 186]	126 to 1000	1260 to 50100	–
CCN1CC(OCc2cc(Cl)ccc2Cl)(C(=O)N2CCN(C3CC3)c3ccccc32)C1 [Example 52, (4-cyclopropyl-3,4-dihydroquinoxalin-1(2H)-yl)(3-(2,5-dichlorobenzyloxy)-1-ethylazetidin-3-yl)methanone]	126 to 1000	1260 to 50100	–
O=C(O)CCCOc1cc(Cl)c(CNC2(C(=O)N3CCN(C4CC4)c4ccccc43)CC2)cc1Cl [Example 187]	126 to 1000	1260 to 50100	–
CN(C(=O)C1(OCc2cc(Cl)c(CCCCNC(=O)NC[C@H](O)[C@@H](O)[C@H](O)[C@H](O)CO)cc2Cl)CC1)c1ccccc1OC1CC1 [Example 257]	< 100	126 to 1000	–
CN(C[C@H](O)[C@@H](O)[C@H](O)[C@H](O)CO)C(=O)CCc1cc(Cl)c(CN2CCC[C@H]2C(=O)N2CCN(C3CC3)c3ccccc32)cc1Cl [Example 48, 3-(2,5-dichloro-4-(((S)-2-(4-cyclopropyl-1,2,3,4-tetrahydroquinoxaline-1carbonyl)pyrrolidin-1-yl)methyl)phenyl)-N-methyl-N-((2S,3R,4R,5R)-2,3,4,5,6-pentahydroxyhexyl)propanamide]	126 to 1000	1260 to 50100	–
CC(C(=O)N1CCN(C2CC2)c2ccccc21)N1CCc2ccc(Cl)cc2C1 (centres unmarked) [Example 244]	1260 to 50100	1260 to 50100	–
O=C(N1CCN(C2CC2)c2ccccc21)C1(CSc2cc(Cl)ccc2Cl)CC1 [Example 180, (4-cyclopropyl-3,4-dihydroquinoxalin-1(2H)-yl)(1-((2,5-dichlorophenylthio)methyl)cyclopropyl)methanone]	< 100	126 to 1000	–
CN(C[C@H](O)[C@@H](O)[C@H](O)[C@H](O)CO)C(=O)CCCCc1cc(Cl)c(CNC2(C(=O)N3CCN(C4CC4)c4ccccc43)CC2)cc1Cl [Example 219]	< 100	< 100	–
CC(OC1(C(=O)N2CCN(C3CC3)c3ccccc32)CC1)c1cc(Cl)ccc1Cl (centres unmarked) [Example 94, (4-cyclopropyl-3,4-dihydroquinoxalin-1(2H)-yl)(1-(1-(2,5-dichlorophenyl)ethoxy)cyclopropyl)methanone]	1260 to 50100	1260 to 50100	–
O=C(O)CCc1cc(Cl)c(OCC2(C(=O)N3CCN(C4CC4)c4ccccc43)CC2)cc1Cl [Example 33, 3-[2,5-dichloro-4-([1-[(4-cyclopropyl-1,2,3,4-tetrahydroquinoxalin-1-yl)carbonyl]cyclopropyl]methoxy)phenyl]propanoic acid]	1260 to 50100	1260 to 50100	–
O=C(N1CCN(C2CC2)c2ccccc21)C1(OCc2c(Cl)cccc2Cl)CC1 [Example 247]	1260 to 50100	1260 to 50100	–
NCCCc1ccc(Cl)c(CNC2(C(=O)N3CCN(C4CC4)c4ccccc43)CC2)c1 [Example 68, (1-((5-(3-aminopropyl)-2-chlorobenzyl)amino)cyclopropyl)(4-cyclopropyl-3,4-dihydroquinoxalin-1(2H)-yl)methanone]	1260 to 50100	1260 to 50100	–
CN(C[C@H](O)[C@@H](O)[C@H](O)[C@H](O)CO)C(=O)NCCOc1cc(Cl)c(CNC2(C(=O)N3CCN(C4CC4)c4ccccc43)CC2)cc1Cl [Example 188]	–	126 to 1000	B (B is a pEC50 of 6-6.9)
O=C([C@@H]1CCCN1Cc1cc(C(F)(F)F)ccc1Cl)N1CCN(C2CC2)c2ccccc21 [Example 84, 1-[[(2S)-1-[[2-chloro-5-(trifluoromethyl)phenyl]methyl]pyrrolidin-2-yl]carbonyl]-4-cyclopropyl-1,2,3,4-tetrahydroquinoxaline]	< 100	126 to 1000	–
COc1cc(Cl)c(CNC2(C(=O)N3CCN(C4CC4)c4ccccc43)CC2)cc1Cl [Example 256]	126 to 1000	126 to 1000	–
CC(=O)N1CC(OCc2cc(Cl)ccc2Cl)(C(=O)N2CCN(C3CC3)c3ccccc32)C1 [Example 54, 1-(3-(4-cyclopropyl-1,2,3,4-tetrahydroquinoxaline-1-carbonyl)-3-(2,5-dichlorobenzyloxyl)azetidin-1-yl)ethanone]	126 to 1000	1260 to 50100	–
O=C(N1CCN(C2CC2)c2ccccc21)C1(OCc2cc(Cl)ccc2Cl)CNC1 [Example 50, (4-cyclopropyl-3,4-dihydroquinoxalin-1(2H)-yl)(3-(2,5-dichlorobenzyloxyl)azetidin-3-yl)methanone]	126 to 1000	1260 to 50100	–
CN(C[C@H](O)[C@@H](O)[C@H](O)[C@H](O)CO)C(=O)NCCOc1cc(Cl)c(CNC2(C(=O)N3CCN(C4CC4)c4ccccc43)CC2)cc1Cl [Example 185]	126 to 1000	1260 to 50100	–
